Patent US10314313B2, “Antimicrobial materials exhibiting synergistic efficacy” (CORNING INCORPORATED, priority 2015, dated 2019)

How the values were obtained:
marine organisms = conditions: cited from earlier work
bacteria = conditions: cited from earlier work
algae = conditions: in combination with Cu; cited from earlier work
mold = assay: Amount of biocide necessary to inhibit fungi growth, mold (FIG. 1); assay type: cell-based
Procedure: (§1) The amount of ZnPT and copper-containing glass necessary to inhibit fungi growth was evaluated.

mildew = assay: Amount of biocide necessary to inhibit fungi growth, mildew (FIG. 2); assay type: cell-based
Procedure: as §1

fungi = conditions: alone

In the case of `[O-][n+]1ccccc1[S][Cu][S]c1cccc[n+]1[O-]` [CuPT], the “toxicity to marine organisms” value (marine organisms) is given as “more toxic than ZnPT”.

For `N#Cc1c(-c2ccc(Cl)cc2)[nH]c(C(F)(F)F)c1Br` [Tralopyril, 4-bromo-2-(4-chlorophenyl)-5-(trifluoromethyl)-1H-pyrrole-3-carbonitrile], the activity against bacteria (bacteria) is listed as “not sufficient”.

In the case of Zinc pyrithione [ZnPT], the “algaecide activity, concentration range” value (algae) is listed as 1-100 ppm (μg/L), the “amount needed to reduce mold growth” value (mold) is listed as 10 g/gallon and the “amount needed to reduce mildew growth” value (mildew) is listed as 100 g/gallon. The inhibition of fungi (fungi) was “no inhibition of fungi”.
